{"source": "patent US10913738B2", "about": "(BRISTOL-MYERS SQUIBB COMPANY, priority 2017, dated 2021)", "key": {"[1]": {"tested_on": "MLKL phosphorylation in HT29-L23 human colorectal adenocarcinoma cells", "assay": "MLKL Phosphorylation High-Content Assay", "type": "cell-based", "conditions": "Homo sapiens", "how_it_was_run": "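IC50 and Ymax obtained by 4-parameter logistic fitting of MLKL phosphorylation, measured as mean circ-ring average intensity ratio from high-content images. Staining used an anti-phospho-S358 MLKL antibody overnight at 4° C., following six-hour cell incubation at 37° C.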"}, "[2]": {"target": "T1, His-GST-TVMV-hRIPK1(1-324) (Homo sapiens, UniProt Q13546)", "T1 construct": "The coding region of human RIPK1(1-324) flanked by NdeI site at 5′ end; made in house; host or cells: Spodoptera frugiperda (Sf9) insect cells, baculovirus", "T1 sequence (Q13546 1-324)": "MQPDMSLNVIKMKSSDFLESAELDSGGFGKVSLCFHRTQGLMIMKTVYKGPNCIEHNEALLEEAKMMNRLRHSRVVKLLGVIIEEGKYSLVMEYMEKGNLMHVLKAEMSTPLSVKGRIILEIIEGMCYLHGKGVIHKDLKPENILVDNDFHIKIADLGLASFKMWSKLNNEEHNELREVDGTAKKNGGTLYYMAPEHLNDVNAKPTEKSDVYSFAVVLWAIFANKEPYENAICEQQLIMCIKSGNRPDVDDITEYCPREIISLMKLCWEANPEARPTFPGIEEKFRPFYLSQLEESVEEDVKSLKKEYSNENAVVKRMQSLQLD", "assay": "RIPK1 HTRF Binding Assay"}, "[3]": {"conditions": "x marks IC50 class 20-200 nM, read-out: pMLKL cell activity 20-200 nM"}, "[4]": {"conditions": "x marks IC50 class <20 nM, read-out: RIPK1 HTRF binding <20 nM"}, "[5]": {"conditions": "x marks IC50 class 20-200 nM, read-out: RIPK1 HTRF binding 20-200 nM"}, "[6]": {"conditions": "x marks IC50 class <20 nM, read-out: pMLKL cell activity <20 nM"}, "[7]": {"conditions": "x marks IC50 class >200 nM, read-out: pMLKL cell activity >200 nM"}}, "note": "pIC50: −log10 of the molar value. Read-outs that look alike come from different tables or passages of the source.", "data": [{"smiles": "Cc1ncc(-c2ccn3nc(N)nc3c2)cc1C(=O)NCc1cc(F)cc(F)c1OCC1CC1", "note": "[Example 235, 5-{2-amino-[1,2,4]triazolo[1,5-a]pyridin-7-yl}-N-{[2-(cyclopropylmethoxy)-3,5-difluorophenyl]methyl}-2-methylpyridine-3-carboxamide]", "values": [{"measurement": "pIC50", "setting": "[1]; [3]", "result": "6.70 to 7.70"}, {"measurement": "pIC50", "setting": "[2]; [4]", "result": "> 7.70"}]}, {"smiles": "Cc1ncc(-c2ccn3nc(N)nc3c2)cc1C(=O)NCc1ncccc1OCC1CCC1", "note": "[Example 236, 5-{2-amino-[1,2,4]triazolo[1,5-a]pyridin-7-yl}-N-{[3-(cyclobutylmethoxy)pyridin-2-yl]methyl}-2-methypyridine-3-carboxamide]", "values": [{"measurement": "pIC50", "setting": "[1]; [3]", "result": "6.70 to 7.70"}, {"measurement": "pIC50", "setting": "[2]; [5]", "result": "6.70 to 7.70"}]}, {"smiles": "Cc1ncc(-c2ccn3nc(N)nc3c2)cc1C(=O)NCc1ccccc1OC1CCC(C)C1", "note": "(stereo not drawn) [Example 237, 5-{2-amino-[1,2,4]triazolo[1,5-a]pyridin-7-yl}-2-methyl-N-({2-[(3-methylcyclopentyl)oxy]phenyl}methyl)pyridine-3-carboxamide]", "values": [{"measurement": "pIC50", "setting": "[1]; [6]", "result": "> 7.70"}, {"measurement": "pIC50", "setting": "[2]; [4]", "result": "> 7.70"}]}, {"smiles": "Cc1ncc(-c2ccn3nc(N)nc3c2)cc1C(=O)NCc1ncccc1OCC1CC1", "note": "[Example 238, 5-{2-amino-[1,2,4]triazolo[1,5-a]pyridin-7-yl}-N-{[3-(cyclopropylmethoxy)pyridin-2-yl]methyl}-2-methylpyridine-3-carboxamide]", "values": [{"measurement": "pIC50", "setting": "[1]; [3]", "result": "6.70 to 7.70"}, {"measurement": "pIC50", "setting": "[2]; [5]", "result": "6.70 to 7.70"}]}, {"smiles": "Cc1ncc(-c2ccn3nc(N)nc3c2)cc1C(=O)NCc1ccccc1OC1CCCCC1", "note": "[Example 239, 5-{2-amino-[1,2,4]triazolo[1,5-a]pyridin-7-yl}-N-{[2-(cyclohexyloxy)phenyl]methyl}-2-methylpyridine-3-carboxamide]", "values": [{"measurement": "pIC50", "setting": "[1]; [6]", "result": "> 7.70"}, {"measurement": "pIC50", "setting": "[2]; [4]", "result": "> 7.70"}]}, {"smiles": "Cc1ncc(-c2ccn3nc(N)nc3c2)cc1C(=O)NCc1cccnc1OC1CCCC1", "note": "[Example 240, 5-{2-amino-[1,2,4]triazolo[1,5-a]pyridin-7-yl}-N-{[2-(cyclopentyloxy)pyridin-3-yl]methyl}-2-methylpyridine-3-carboxamide]", "values": [{"measurement": "pIC50", "setting": "[1]; [3]", "result": "6.70 to 7.70"}, {"measurement": "pIC50", "setting": "[2]; [4]", "result": "> 7.70"}]}, {"smiles": "Cc1ncc(-c2ccn3nc(N)nc3c2)cc1C(=O)NCc1ncccc1OC1CCCC1", "note": "[Example 241, 5-{2-amino-[1,2,4]triazolo[1,5-a]pyridin-7-yl}-N-{[3-(cyclopentyloxy)pyridin-2-yl]methyl}-2-methylpyridine-3-carboxamide]", "values": [{"measurement": "pIC50", "setting": "[1]; [3]", "result": "6.70 to 7.70"}, {"measurement": "pIC50", "setting": "[2]; [4]", "result": "> 7.70"}]}, {"smiles": "Cc1ncc(-c2ccn3nc(N)nc3c2)cc1C(=O)NCc1cc(F)ccc1OC1CCCC1", "note": "[Example 242, 5-{2-amino-[1,2,4]triazolo[1,5-a]pyridin-7-yl}-N-{[2-(cyclopentyloxy)-5-fluorophenyl]methyl}-2-methylpyridine-3-carboxamide]", "values": [{"measurement": "pIC50", "setting": "[1]; [6]", "result": "> 7.70"}, {"measurement": "pIC50", "setting": "[2]; [4]", "result": "> 7.70"}]}, {"smiles": "Cc1ncc(-c2ccn3nc(N)nc3c2)cc1C(=O)NCc1cccc(OCC2CC2)c1", "note": "[Example 243, 5-{2-amino-[1,2,4]triazolo[1,5-a]pyridin-7-yl}-N-{[3-(cyclopropylmethoxy)phenyl]methyl}-2-methylpyridine-3-carboxamide]", "values": [{"measurement": "pIC50", "setting": "[1]; [7]", "result": "< 6.70"}, {"measurement": "pIC50", "setting": "[2]; [5]", "result": "6.70 to 7.70"}]}, {"smiles": "Cc1ncc(-c2ccn3nc(N)nc3c2)cc1C(=O)NCc1ccccc1OC(F)(F)C(F)F", "note": "[Example 244, 5-{2-amino-[1,2,4]triazolo[1,5-a]pyridin-7-yl}-2-methyl-N-{[2-(1,1,2,2-tetrafluoroethoxy)phenyl]methyl}pyridine-3-carboxamide]", "values": [{"measurement": "pIC50", "setting": "[1]; [7]", "result": "< 6.70"}, {"measurement": "pIC50", "setting": "[2]; [5]", "result": "6.70 to 7.70"}]}, {"smiles": "Cc1ncc(-c2ccn3nc(N)nc3c2)cc1C(=O)NCc1c(F)cccc1OCC1CC1", "note": "[Example 245, 5-{2-amino-[1,2,4]triazolo[1,5-a]pyridin-7-yl}-N-{[2-(cyclopropylmethoxy)-6-fluorophenyl]methyl}-2-methylpyridine-3-carboxamide]", "values": [{"measurement": "pIC50", "setting": "[1]; [3]", "result": "6.70 to 7.70"}, {"measurement": "pIC50", "setting": "[2]; [4]", "result": "> 7.70"}]}, {"smiles": "Cc1ncc(-c2ccn3nc(N)nc3c2)cc1C(=O)NCc1cccc(OC(F)(F)F)c1", "note": "[Example 246, 5-{2-amino-[1,2,4]triazolo[1,5-a]pyridin-7-yl}-2-methyl-N-{[3-(trifluoromethoxy)phenyl]methyl}pyridine-3-carboxamide]", "values": [{"measurement": "pIC50", "setting": "[1]; [7]", "result": "< 6.70"}, {"measurement": "pIC50", "setting": "[2]; [5]", "result": "6.70 to 7.70"}]}]}
